Data from US8648111B2, “N1-2-thiophene-2-ylethyl-N2-substituted biguanide derivate, preparation method thereof, and pharmaceutical composition containing the same as active ingredients” (Hanall Biopharma Co., Ltd., priority 2008, dated 2014).
Where two headings read alike, the source gives them in different places.

Tests used:
Assay type in all cases: cell-based
[1] = system: HepG2 cells; test: Measurement of cholesterol synthesis inhibitory ability (cholesterol content in cell lysates, Amplex red)
Description: (§1) 2 mM metformin was used as a comparative compound for each of the plates (control group).
A cholesterol synthesis inhibitory ability, which is an important function of AMPK (AMP-activated protein kinase), was measured using HepG2 cells (ATCC: American Type Culture Collection) as a hepatic cell model according to the following procedure.
The hepatic cell model HepG2 cells were cultured in 1% serum-containing media (DMEM (Gibco), FBS (Gibco)) for 24 hours, and then treated with 100 μM or 500 μM of each of the compounds prepared in Examples for 24 hours. Then, the cells were disrupted with a lysis solution (0.1 M potassium phosphate, pH 7.4, 0.05 M NaCl, 5 mM cholic acid, 0.1% Triton X-100 (Sigma)). To the disrupted cells was added the same volume of a reaction solution (2 U/mL of a cholesterol oxidizing agent, 2 U/mL of a peroxidase, 0.2 U/mL of a cholesterol esterase, and 300 μM of Amplex red as a fluorescent factor (Molecular Probe)), which was allowed to react at 37° C. for 30 minutes. After completion of the reaction, the content of cholesterol formed in the cell lysates was measured at a wavelength of 560/590 nm (ex/em) using a fluorescence microscope.
A lower measurement value means an increased cholesterol synthesis inhibitory ability.

[2] = system: HepG2 cells; test: Measurement of triglyceride (triglyceride content in cell lysates, Amplex red)
Description: as §1
HepG2 cells (ATCC: American Type Culture Collection) were cultured in 1% serum-containing media (DMEM (Gibco), FBS (Gibco)) for 24 hours, and then treated with 100 μM or 500 μM of each of the compounds prepared in Examples for 24 hours. Then, the cells were disrupted with a lysis solution (0.1 M potassium phosphate, pH 7.4, 0.05 M NaCl, 5 mM cholic acid, 0.1% Triton X-100). […] After completion of the reaction, the content of triglyceride formed in the cell lysates was measured at a wavelength of 560/590 nm (ex/em) using a fluorescence microscope.
A lower measurement value means an increased triglyceride synthesis inhibitory ability.

[3] = system: HepG2 cells; test: Measurement of gluconeogenesis inhibitory ability (14C-lactate, glucose formed in cells)
Description: as §1
HepG2 cells (ATCC: American Type Culture Collection) were cultured in 10% serum-containing high glucose media, transferred to no serum-containing low glucose media (DMEM (Gibco), FBS (Gibco)), and then treated with 100 μM of each of the compounds for 24 hours. Then, the cells were treated with 0.5 μCi ^14C-lactate (Amersham Pharmacia) and 10 mM L-lactate (Sigma), and cultured for 4 hours. After cultivation, the media were removed therefrom, and the cells were washed with PBS, treated with 0.1N NaOH and kept at room temperature for 1 hour. Then, the cells were neutralized with 1N HCl, and the content of glucose formed in the cells was measured with a liquid scintillation counter.
A lower measurement value means an increased gluconeogenesis inhibitory ability.

[4] = system: C2C12 cells; test: Measurement of glucose absorption ability (3H-deoxy-glucose uptake with insulin); settings: 100 uM compound with 1 μM insulin, 24 hours, differentiated C2C12; higher value = stronger; more than 200% counts as glucose absorption ability
Description: as §1
C2C12 cells (ATCC: American Type Culture Collection), a muscle cell model, were induced to differentiate into muscle cells in 2% bovine fetal serum-containing media (DMEM (Gibco), FBS (Gibco)) for 6 days. The C2C12 cells which differentiated into muscle cells were transferred to serum-free low glucose media (DMEM (Gibco), FBS (Gibco)), treated with 100 μM of each of the compounds, and then cultured with 1 μM of insulin for 24 hours. After cultivation, the cells were treated with 1 μCi ^3H-deoxy-glucose (Amersham Pharmacia) and 10 μM deoxy-glucose (Sigma) at 37° C. for 15 minutes. The media were removed therefrom, and the cells were washed twice with PBS (phosphate buffered saline). The washed cells were treated with 0.1N NaOH and neutralized with 1N HCl. The content of glucose absorbed into the cells was measured with a liquid scintillation counter.
A higher measurement value means a stronger ability to reduce insulin resistance.

[5] = 100 uM compound, 24 hours, HepG2, lower value = stronger cholesterol synthesis inhibition
[6] = 500 uM compound, 24 hours, HepG2, lower value = stronger cholesterol synthesis inhibition
[7] = 100 uM compound, 24 hours, HepG2, lower value = stronger triglyceride synthesis inhibition
[8] = 500 uM compound, 24 hours, HepG2, lower value = stronger triglyceride synthesis inhibition
[9] = 100 uM compound, 24 hours, HepG2, lower value = stronger gluconeogenesis inhibition

Cl.N=C(N)NC(=Nc1ccc(-c2ccccc2)cc1)NCCc1cccs1 [Example 35, N1-2-(thiophen-2-ylethyl)-N2-(4-phenylphenyl) biguanide hydrochloride]
Cholesterol (100 uM) Aver. [1, 5]: 28.27
Cholesterol (500 uM) Aver. [1, 6]: 30.49
Triglyceride (100 uM) Aver. [2, 7]: 18.94
Triglyceride (500 uM) Aver. [2, 8]: 14.92
Gluconeogenesis inhibition (100 uM) Aver. [3, 9]: 109.62
Glucose absorption (100 uM) Aver. [4]: 35.00%

Cl.N=C(N)NC(=Nc1ccc(Oc2ccccc2)cc1)NCCc1cccs1 [Example 36, N1-2-(thiophen-2-ylethyl)-N2-(4-phenoxyphenyl) biguanide hydrochloride]
Cholesterol (100 uM) Aver. [1, 5]: 31.22
Cholesterol (500 uM) Aver. [1, 6]: 34.74
Triglyceride (100 uM) Aver. [2, 7]: 20.95
Triglyceride (500 uM) Aver. [2, 8]: 17.89
Gluconeogenesis inhibition (100 uM) Aver. [3, 9]: 1.54
Glucose absorption (100 uM) Aver. [4]: 4.50%

COc1ccc(CN=C(NCCc2cccs2)NC(=N)N)cc1.Cl [Example 38, N1-2-(thiophen-2-ylethyl)-N2-(4-methoxybenzyl) biguanide hydrochloride]
Cholesterol (100 uM) Aver. [1, 5]: 80.35
Cholesterol (500 uM) Aver. [1, 6]: 44.72
Triglyceride (100 uM) Aver. [2, 7]: 100.89
Triglyceride (500 uM) Aver. [2, 8]: 84.10
Gluconeogenesis inhibition (100 uM) Aver. [3, 9]: 120.13
Glucose absorption (100 uM) Aver. [4]: 195.22%

Cl.N=C(N)NC(=Nc1cc(Cl)cc(Cl)c1)NCCc1cccs1 [Example 39, N1-2-(thiophen-2-ylethyl)-N2-(3,5-dichlorophenyl) biguanide hydrochloride]
Cholesterol (100 uM) Aver. [1, 5]: 69.65
Cholesterol (500 uM) Aver. [1, 6]: 61.03
Triglyceride (100 uM) Aver. [2, 7]: 73.50
Triglyceride (500 uM) Aver. [2, 8]: 72.66
Gluconeogenesis inhibition (100 uM) Aver. [3, 9]: 13.04
Glucose absorption (100 uM) Aver. [4]: 188.26%

Cc1ccc(CN=C(NCCc2cccs2)NC(=N)N)cc1.Cl [Example 40, N1-2-(thiophen-2-ylethyl)-N2-(4-methylbenzyl) biguanide hydrochloride]
Cholesterol (100 uM) Aver. [1]: 72.58
Cholesterol (500 uM) Aver. [1]: 57.11
Triglyceride (100 uM) Aver. [2]: 84.73
Triglyceride (500 uM) Aver. [2]: 60.37
Gluconeogenesis inhibition (100 uM) Aver. [3]: 81.23
Glucose absorption (100 uM) Aver. [4]: 75.38%

CC(C)N=C(NCCc1cccs1)NC(=N)N.Cl [Example 41, N1-2-(thiophen-2-ylethyl)-N2-isopropyl biguanide hydrochloride]
Cholesterol (100 uM) Aver. [1, 5]: 87.73
Cholesterol (500 uM) Aver. [1, 6]: 75.54
Triglyceride (100 uM) Aver. [2, 7]: 93.91
Triglyceride (500 uM) Aver. [2, 8]: 81.62
Gluconeogenesis inhibition (100 uM) Aver. [3, 9]: 97.81
Glucose absorption (100 uM) Aver. [4]: 150.65%

CC(C)CN=C(NCCc1cccs1)NC(=N)N.Cl [Example 42, -2-(thiophen-2-ylethyl)-N2-isobutyl biguanide hydrochloride]
Cholesterol (100 uM) Aver. [1, 5]: 89.11
Cholesterol (500 uM) Aver. [1, 6]: 73.15
Triglyceride (100 uM) Aver. [2, 7]: 97.66
Triglyceride (500 uM) Aver. [2, 8]: 88.50
Gluconeogenesis inhibition (100 uM) Aver. [3, 9]: 99.91
Glucose absorption (100 uM) Aver. [4]: 171.92%

Cl.N=C(N)NC(=NCC1CC1)NCCc1cccs1 [Example 43, N1-2-(thiophen-2-ylethyl)-N2-cyclopropylmethyl biguanide hydrochloride]
Cholesterol (100 uM) Aver. [1, 5]: 88.47
Cholesterol (500 uM) Aver. [1, 6]: 78.80
Triglyceride (100 uM) Aver. [2, 7]: 90.52
Triglyceride (500 uM) Aver. [2, 8]: 79.92
Gluconeogenesis inhibition (100 uM) Aver. [3, 9]: 99.28
Glucose absorption (100 uM) Aver. [4]: 196.03%

C=CCN=C(NCCc1cccs1)NC(=N)N.Cl [Example 44, N1-2-(thiophen-2-ylethyl)-N2-allyl biguanide hydrochloride]
Cholesterol (100 uM) Aver. [1]: 85.73
Cholesterol (500 uM) Aver. [1]: 82.40
Triglyceride (100 uM) Aver. [2]: 96.99
Triglyceride (500 uM) Aver. [2]: 74.60
Gluconeogenesis inhibition (100 uM) Aver. [3]: 77.80
Glucose absorption (100 uM) Aver. [4]: 87.78%

CN=C(NCCc1sccc1C)NC(=N)N.Cl [Example 45, N1-2-(3-methylthiophen-2-ylethyl)-N2-methyl biguanide hydrochloride]
Cholesterol (100 uM) Aver. [1, 5]: 77.03
Cholesterol (500 uM) Aver. [1, 6]: 63.78
Triglyceride (100 uM) Aver. [2, 7]: 92.38
Triglyceride (500 uM) Aver. [2, 8]: 89.00
Gluconeogenesis inhibition (100 uM) Aver. [3, 9]: 94.51
Glucose absorption (100 uM) Aver. [4]: 264.76%

N1-2-(5-ethylthiophen-2-ylethyl)-N2-methyl biguanide hydrochloride [Example 46]
Cholesterol (100 uM) Aver. [1, 5]: 84.52
Cholesterol (500 uM) Aver. [1, 6]: 71.64
Triglyceride (100 uM) Aver. [2, 7]: 90.82
Triglyceride (500 uM) Aver. [2, 8]: 86.07
Gluconeogenesis inhibition (100 uM) Aver. [3]: 23.65
Glucose absorption (100 uM) Aver. [4]: 353.21%

N1-2-(thiophen-2-ylethyl)-N2-(4-bromobenzyl) biguanide hydrochloride [Example 37]
Cholesterol (100 uM) Aver. [1]: 28.36
Cholesterol (500 uM) Aver. [1]: 30.84
Triglyceride (100 uM) Aver. [2]: 61.41
Triglyceride (500 uM) Aver. [2]: 20.15
Gluconeogenesis inhibition (100 uM) Aver. [3]: 89.96
Glucose absorption (100 uM) Aver. [4]: 7.71%

N1-2-(thiophen-2-ylethyl)-N2-cyclohexyl biguanide hydrochloride [Example 6]
Cholesterol (100 uM) Aver. [1]: 30.58
Cholesterol (500 uM) Aver. [1]: 0.51
Triglyceride (100 uM) Aver. [2]: 51.00
Triglyceride (500 uM) Aver. [2]: −1.71
Gluconeogenesis inhibition (100 uM) Aver. [3]: 33.59
Glucose absorption (100 uM) Aver. [4]: 56.15%

N1-2-(thiophen-2-ylethyl)-N2-t-butyl biguanide hydrochloride [Example 7]
Cholesterol (100 uM) Aver. [1, 5]: 42.51
Cholesterol (500 uM) Aver. [1, 6]: 2.79
Triglyceride (100 uM) Aver. [2, 7]: 74.43
Triglyceride (500 uM) Aver. [2, 8]: 16.49
Gluconeogenesis inhibition (100 uM) Aver. [3, 9]: 39.98
Glucose absorption (100 uM) Aver. [4]: 21.59%
